Test results reported in ChEMBL document CHEMBL5649169 (ChemMedChem, 2018).

Experiments:
[1] = target: COP9 signalosome complex subunit 2 (Homo sapiens) (UniProt P61201)
[2] = target: Surfeit locus protein 4 (Homo sapiens) (UniProt O15260)
[3] = target: Peroxiredoxin-1 (Homo sapiens) (UniProt Q06830)
[4] = target: Mitochondrial import inner membrane translocase subunit TIM44 (Homo sapiens) (UniProt O43615)
Elongin-C (Homo sapiens) = Elongin-C (Homo sapiens) (UniProt Q15369)
[5] = target: Actin-like protein 6A (Homo sapiens) (UniProt O96019)
Actin-like protein 6A (Homo sapiens), sequence (O96019 whole entry): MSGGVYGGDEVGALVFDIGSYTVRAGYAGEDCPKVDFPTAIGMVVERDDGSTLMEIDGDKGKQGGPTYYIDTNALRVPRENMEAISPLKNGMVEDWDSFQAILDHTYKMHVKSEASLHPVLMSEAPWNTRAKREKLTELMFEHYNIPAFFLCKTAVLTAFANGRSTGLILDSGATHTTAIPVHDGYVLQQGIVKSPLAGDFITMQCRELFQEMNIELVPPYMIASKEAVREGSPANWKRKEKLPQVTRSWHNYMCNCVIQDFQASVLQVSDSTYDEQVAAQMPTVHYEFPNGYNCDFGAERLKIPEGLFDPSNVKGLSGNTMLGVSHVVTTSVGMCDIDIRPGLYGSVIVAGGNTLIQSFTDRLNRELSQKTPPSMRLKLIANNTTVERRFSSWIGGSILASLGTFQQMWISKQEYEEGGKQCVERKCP

[6] = target: Polyadenylate-binding protein-interacting protein 1 (Homo sapiens) (UniProt Q9H074)
[7] = target: 26S proteasome regulatory subunit 8 (Homo sapiens) (UniProt P62195)
[8] = target: MAP kinase-activated protein kinase 5 (Homo sapiens) (UniProt Q8IW41)
[9] = target: Thiol S-methyltransferase TMT1A (Homo sapiens) (UniProt Q9H8H3)
Thiol S-methyltransferase TMT1A (Homo sapiens), sequence (Q9H8H3 whole entry): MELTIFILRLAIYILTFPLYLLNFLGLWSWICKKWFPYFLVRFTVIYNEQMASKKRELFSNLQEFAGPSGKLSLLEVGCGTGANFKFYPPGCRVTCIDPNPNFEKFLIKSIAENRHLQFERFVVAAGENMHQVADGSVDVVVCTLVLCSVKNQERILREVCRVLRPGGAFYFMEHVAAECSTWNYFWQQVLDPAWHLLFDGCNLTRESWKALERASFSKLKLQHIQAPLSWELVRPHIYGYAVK

[10] = target: TNF receptor-associated factor 2 (Homo sapiens) (UniProt Q12933)
[11] = target: EKC/KEOPS complex subunit TP53RK (Homo sapiens) (UniProt Q96S44)
[12] = target: Iron-sulfur clusters transporter ABCB7, mitochondrial (Homo sapiens) (UniProt O75027)
[13] = target: Stress-70 protein, mitochondrial (Homo sapiens) (UniProt P38646)
[14] = target: Oxysterol-binding protein-related protein 8 (Homo sapiens) (UniProt Q9BZF1)
[15] = target: Serine/threonine-protein kinase ULK3 (Homo sapiens) (UniProt Q6PHR2)
[16] = target: Eukaryotic translation initiation factor 3 subunit L (Homo sapiens) (UniProt Q9Y262)
[17] = target: Tyrosine--tRNA ligase, cytoplasmic (Homo sapiens) (UniProt P54577)
[18] = target: Nucleolar complex protein 2 homolog (Homo sapiens) (UniProt Q9Y3T9)
[19] = target: Probable ATP-dependent RNA helicase DDX17 (Homo sapiens) (UniProt Q92841)
Probable ATP-dependent RNA helicase DDX17 (Homo sapiens), sequence (Q92841 whole entry): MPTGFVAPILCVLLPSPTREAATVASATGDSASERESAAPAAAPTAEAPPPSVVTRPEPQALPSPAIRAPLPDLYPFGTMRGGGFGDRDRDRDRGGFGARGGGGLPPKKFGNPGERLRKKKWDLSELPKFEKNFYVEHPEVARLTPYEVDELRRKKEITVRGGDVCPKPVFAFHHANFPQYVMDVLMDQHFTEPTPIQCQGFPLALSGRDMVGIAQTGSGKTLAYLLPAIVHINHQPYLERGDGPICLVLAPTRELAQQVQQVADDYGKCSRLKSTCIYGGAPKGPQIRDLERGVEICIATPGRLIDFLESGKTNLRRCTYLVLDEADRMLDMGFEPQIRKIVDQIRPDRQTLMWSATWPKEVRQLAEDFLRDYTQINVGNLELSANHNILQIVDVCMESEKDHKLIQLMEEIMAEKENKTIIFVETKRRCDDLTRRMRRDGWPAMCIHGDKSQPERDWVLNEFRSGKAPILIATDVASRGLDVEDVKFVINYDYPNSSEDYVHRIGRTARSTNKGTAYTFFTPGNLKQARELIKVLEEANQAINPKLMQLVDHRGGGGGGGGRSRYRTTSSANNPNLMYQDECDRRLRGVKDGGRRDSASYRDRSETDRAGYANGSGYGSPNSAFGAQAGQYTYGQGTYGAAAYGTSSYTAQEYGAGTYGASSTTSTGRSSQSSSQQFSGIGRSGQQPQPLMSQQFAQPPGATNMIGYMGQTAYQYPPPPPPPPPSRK

[20] = target: Proteasome subunit alpha type-5 (Homo sapiens) (UniProt P28066)
[21] = target: General transcription factor II-I (Homo sapiens) (UniProt P78347)
General transcription factor II-I (Homo sapiens), sequence (P78347 whole entry): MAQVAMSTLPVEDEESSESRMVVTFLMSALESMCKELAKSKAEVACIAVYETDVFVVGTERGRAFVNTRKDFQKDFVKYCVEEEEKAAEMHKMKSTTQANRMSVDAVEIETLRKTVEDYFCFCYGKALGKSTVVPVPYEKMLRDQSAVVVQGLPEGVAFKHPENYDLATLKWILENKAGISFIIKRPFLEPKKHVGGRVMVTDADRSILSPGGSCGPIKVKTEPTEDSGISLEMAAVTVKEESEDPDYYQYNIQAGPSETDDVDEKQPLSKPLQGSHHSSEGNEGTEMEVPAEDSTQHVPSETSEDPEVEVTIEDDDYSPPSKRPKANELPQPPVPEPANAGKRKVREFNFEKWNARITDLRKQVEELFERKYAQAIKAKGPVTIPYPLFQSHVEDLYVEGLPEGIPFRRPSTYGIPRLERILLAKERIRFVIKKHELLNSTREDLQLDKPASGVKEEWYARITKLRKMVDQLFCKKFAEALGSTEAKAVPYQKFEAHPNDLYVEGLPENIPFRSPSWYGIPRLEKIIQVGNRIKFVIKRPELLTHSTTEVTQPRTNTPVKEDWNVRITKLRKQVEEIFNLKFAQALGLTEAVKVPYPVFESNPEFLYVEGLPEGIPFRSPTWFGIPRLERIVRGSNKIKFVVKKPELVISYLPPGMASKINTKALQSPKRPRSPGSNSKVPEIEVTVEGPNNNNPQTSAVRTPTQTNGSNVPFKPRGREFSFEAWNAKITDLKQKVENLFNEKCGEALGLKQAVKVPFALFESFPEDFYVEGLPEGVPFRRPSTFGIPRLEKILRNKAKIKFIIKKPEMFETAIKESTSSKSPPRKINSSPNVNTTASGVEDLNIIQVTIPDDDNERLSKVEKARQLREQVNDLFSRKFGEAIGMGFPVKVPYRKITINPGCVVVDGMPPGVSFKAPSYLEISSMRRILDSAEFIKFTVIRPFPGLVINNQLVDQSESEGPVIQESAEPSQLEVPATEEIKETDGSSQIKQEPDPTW

[22] = target: Small ribosomal subunit protein eS17 (Homo sapiens) (UniProt P08708)
[23] = target: Proliferation marker protein Ki-67 (Homo sapiens) (UniProt P46013)
[24] = target: Ribonucleoside-diphosphate reductase large subunit (Homo sapiens) (UniProt P23921)
[25] = target: Small ribosomal subunit protein eS25 (Homo sapiens) (UniProt P62851)
[26] = target: C2 domain-containing protein 5 (Homo sapiens) (UniProt Q86YS7)
[27] = target: Mitogen-activated protein kinase 1 (Homo sapiens) (UniProt P28482)
[28] = target: Protein arginine N-methyltransferase 5 (Homo sapiens) (UniProt O14744)
Protein arginine N-methyltransferase 5 (Homo sapiens), sequence (O14744 whole entry): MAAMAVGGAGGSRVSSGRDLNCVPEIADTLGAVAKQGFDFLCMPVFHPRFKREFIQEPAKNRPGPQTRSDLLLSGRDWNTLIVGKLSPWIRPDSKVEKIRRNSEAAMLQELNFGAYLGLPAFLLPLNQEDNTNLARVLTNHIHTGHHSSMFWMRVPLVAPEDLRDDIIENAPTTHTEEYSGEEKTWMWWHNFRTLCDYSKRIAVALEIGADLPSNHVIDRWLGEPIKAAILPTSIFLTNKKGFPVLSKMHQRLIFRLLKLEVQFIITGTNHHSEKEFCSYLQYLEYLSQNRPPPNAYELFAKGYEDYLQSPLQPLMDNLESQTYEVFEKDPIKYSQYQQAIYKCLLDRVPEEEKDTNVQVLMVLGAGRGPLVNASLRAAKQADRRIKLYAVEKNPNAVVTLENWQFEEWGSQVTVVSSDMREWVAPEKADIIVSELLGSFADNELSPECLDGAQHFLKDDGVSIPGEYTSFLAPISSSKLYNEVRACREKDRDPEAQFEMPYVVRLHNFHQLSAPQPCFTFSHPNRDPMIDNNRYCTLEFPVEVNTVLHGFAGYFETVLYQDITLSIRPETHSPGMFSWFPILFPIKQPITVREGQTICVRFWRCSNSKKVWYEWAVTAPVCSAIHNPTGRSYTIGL

[29] = target: Transmembrane protein 161A (Homo sapiens) (UniProt Q9NX61)
[30] = target: Nuclear pore complex protein Nup155 (Homo sapiens) (UniProt O75694)
[31] = target: Solute carrier family 35 member E1 (Homo sapiens) (UniProt Q96K37)
[32] = target: Serine-protein kinase ATM (Homo sapiens) (UniProt Q13315)
[33] = target: Pyruvate dehydrogenase E1 component subunit alpha, somatic form, mitochondrial (Homo sapiens) (UniProt P08559)
[34] = target: Heterogeneous nuclear ribonucleoprotein H3 (Homo sapiens) (UniProt P31942)
[35] = target: Dolichyl-diphosphooligosaccharide--protein glycosyltransferase subunit 2 (Homo sapiens) (UniProt P04844)
[36] = target: Isocitrate dehydrogenase [NAD] subunit alpha, mitochondrial (Homo sapiens) (UniProt P50213)
[37] = target: Leucine--tRNA ligase, cytoplasmic (Homo sapiens) (UniProt Q9P2J5)
[38] = target: Bone morphogenetic protein receptor type-2 (Homo sapiens) (UniProt Q13873)
[39] = target: Tyrosine-protein kinase ABL1 (Homo sapiens, UniProt P00519)
[40] = target: Phosphorylase b kinase gamma catalytic chain, liver/testis isoform (Homo sapiens) (UniProt P15735)
[41] = target: TANK-binding kinase 1-binding protein 1 (Homo sapiens) (UniProt A7MCY6)
[42] = target: DNA replication licensing factor MCM5 (Homo sapiens) (UniProt P33992)
[43] = target: Unhealthy ribosome biogenesis protein 2 homolog (Homo sapiens) (UniProt Q14146)
Unhealthy ribosome biogenesis protein 2 homolog (Homo sapiens), sequence (Q14146 whole entry): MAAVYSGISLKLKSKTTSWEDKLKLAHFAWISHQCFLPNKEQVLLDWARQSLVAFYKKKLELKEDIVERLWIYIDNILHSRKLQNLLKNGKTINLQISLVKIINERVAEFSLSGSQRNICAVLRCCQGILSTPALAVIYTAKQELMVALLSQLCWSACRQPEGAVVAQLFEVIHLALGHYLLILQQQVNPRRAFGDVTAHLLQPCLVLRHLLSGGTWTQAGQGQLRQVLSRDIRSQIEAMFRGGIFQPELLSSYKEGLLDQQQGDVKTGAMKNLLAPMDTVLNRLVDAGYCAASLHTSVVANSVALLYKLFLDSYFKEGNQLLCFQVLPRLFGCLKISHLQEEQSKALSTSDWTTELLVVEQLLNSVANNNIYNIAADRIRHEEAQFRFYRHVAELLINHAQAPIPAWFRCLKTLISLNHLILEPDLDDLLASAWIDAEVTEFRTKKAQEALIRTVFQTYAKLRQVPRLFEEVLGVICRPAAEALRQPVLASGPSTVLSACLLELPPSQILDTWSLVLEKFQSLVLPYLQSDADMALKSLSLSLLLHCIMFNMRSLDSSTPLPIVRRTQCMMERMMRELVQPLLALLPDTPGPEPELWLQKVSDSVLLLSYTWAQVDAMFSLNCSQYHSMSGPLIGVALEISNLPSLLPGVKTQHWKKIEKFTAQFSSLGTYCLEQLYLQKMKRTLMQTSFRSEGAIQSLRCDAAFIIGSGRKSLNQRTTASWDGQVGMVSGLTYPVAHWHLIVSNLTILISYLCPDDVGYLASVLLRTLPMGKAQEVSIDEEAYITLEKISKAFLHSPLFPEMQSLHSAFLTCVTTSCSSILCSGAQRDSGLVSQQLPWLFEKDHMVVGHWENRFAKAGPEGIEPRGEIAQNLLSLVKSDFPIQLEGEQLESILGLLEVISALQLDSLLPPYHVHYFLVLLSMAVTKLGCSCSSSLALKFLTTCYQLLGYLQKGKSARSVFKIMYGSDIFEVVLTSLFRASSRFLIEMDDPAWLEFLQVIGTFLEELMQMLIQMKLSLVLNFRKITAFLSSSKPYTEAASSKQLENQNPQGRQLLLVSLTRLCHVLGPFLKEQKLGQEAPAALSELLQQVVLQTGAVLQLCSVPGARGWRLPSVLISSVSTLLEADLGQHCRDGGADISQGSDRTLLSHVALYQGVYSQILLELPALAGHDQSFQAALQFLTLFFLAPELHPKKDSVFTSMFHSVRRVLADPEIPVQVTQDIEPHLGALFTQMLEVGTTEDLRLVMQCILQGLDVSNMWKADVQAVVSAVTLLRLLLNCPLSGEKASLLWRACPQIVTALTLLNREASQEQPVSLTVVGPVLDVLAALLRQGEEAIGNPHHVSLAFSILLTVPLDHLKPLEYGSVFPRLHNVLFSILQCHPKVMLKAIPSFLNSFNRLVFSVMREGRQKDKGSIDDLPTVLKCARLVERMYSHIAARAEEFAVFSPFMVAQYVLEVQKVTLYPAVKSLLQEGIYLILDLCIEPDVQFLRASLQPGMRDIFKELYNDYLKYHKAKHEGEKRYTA

[44] = target: Double-stranded RNA-specific adenosine deaminase (Homo sapiens) (UniProt P55265)
Note: assay method not described here.

Surfeit locus protein 4 (Homo sapiens), sequence (O15260 whole entry): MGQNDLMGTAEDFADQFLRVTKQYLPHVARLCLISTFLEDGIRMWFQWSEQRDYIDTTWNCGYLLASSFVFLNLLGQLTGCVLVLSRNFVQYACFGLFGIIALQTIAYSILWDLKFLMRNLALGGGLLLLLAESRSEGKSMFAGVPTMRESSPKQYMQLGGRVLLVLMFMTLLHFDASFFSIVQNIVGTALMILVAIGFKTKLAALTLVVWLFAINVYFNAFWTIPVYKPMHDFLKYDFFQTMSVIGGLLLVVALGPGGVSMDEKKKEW
Elongin-C (Homo sapiens), sequence (Q15369 whole entry, looked up): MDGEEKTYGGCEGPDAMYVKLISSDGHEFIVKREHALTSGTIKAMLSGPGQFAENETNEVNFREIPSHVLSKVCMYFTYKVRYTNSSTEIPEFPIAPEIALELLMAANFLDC

Cc1ccc(C(=O)Nc2cccc(C(F)(F)F)c2)cc1Nc1nc(-c2cccnc2)nc2c1cnn2C
ED50 [1]: 24.6 µM | ED50 [2]: 0.017 µM | ED50 [3]: 0.0459 µM | ED50 [4]: 0.445 µM | ED50 (Elongin-C (Homo sapiens)): 122 µM | ED50 [5]: 3.26 µM | ED50 [6]: 13.9 µM | ED50 [7]: 7.4 µM | ED50 [8]: 26.2 µM | ED50 [9]: 30.4 µM | ED50 [10]: 3.11 µM | ED50 [11]: 3.47 µM | ED50 [12]: 0.0622 µM | ED50 [13]: 0.0314 µM | ED50 [14]: 0.128 µM | ED50 [15]: 3.54 µM | ED50 [16]: 2.5 µM | ED50 [17]: 0.157 µM | ED50 [18]: 0.637 µM | ED50 [19]: 0.126 µM | ED50 [20]: 2.11 µM | ED50 [21]: 2.77 µM | ED50 [22]: 21.8 µM | ED50 [23]: 4.64 µM | ED50 [24]: 1.67 µM | ED50 [25]: 2.64 µM | ED50 [26]: 0.0177 µM | ED50 [27]: 0.027 µM | ED50 [28]: 18.2 µM | ED50 [29]: 0.044 µM | ED50 [30]: 0.537 µM | ED50 [31]: 0.00439 µM | ED50 [32]: 8680 µM | ED50 (Homo sapiens): 3.11 µM | ED50 [33]: 0.101 µM | ED50 [34]: 0.00513 µM | ED50 [35]: 0.874 µM | ED50 [36]: 0.836 µM | ED50 [37]: 4.63 µM | ED50 [38]: 3.02 µM | ED50 [39]: 1.66 µM | ED50 [40]: 0.144 µM | ED50 [41]: 11.4 µM | ED50 [42]: 6.51 µM | ED50 [43]: 2.88 µM | ED50 [44]: 0.00467 µM

Cc1ccc(C(=O)Nc2cccc(C(F)(F)F)c2)cc1Nc1nc(-c2cccnc2)nc2nn(C)cc12
ED50 [1]: 79.4 µM | ED50 [2]: 0.0151 µM | ED50 [3]: 9.72 µM | ED50 [4]: 0.31 µM | ED50 (Elongin-C (Homo sapiens)): 0.682 µM | ED50 [5]: 12.6 µM | ED50 [6]: 0.00552 µM | ED50 [7]: 0.443 µM | ED50 [8]: 0.047 µM | ED50 [9]: 2.97 µM | ED50 [10]: 0.68 µM | ED50 [11]: 0.485 µM | ED50 [12]: 0.0289 µM | ED50 [13]: 0.0308 µM | ED50 [14]: 650 µM | ED50 [15]: 0.0784 µM | ED50 [16]: 0.0714 µM | ED50 [17]: 0.0572 µM | ED50 [18]: 627 µM | ED50 [19]: 16.2 µM | ED50 [20]: 214 µM | ED50 [21]: 0.0945 µM | ED50 [22]: 1.76 µM | ED50 [23]: 0.0399 µM | ED50 [24]: 5.74 µM | ED50 [25]: 0.2 µM | ED50 [26]: 0.0663 µM | ED50 [27]: 0.0471 µM | ED50 [28]: 3 µM | ED50 [29]: 0.434 µM | ED50 [30]: 0.193 µM | ED50 [31]: 55.3 µM | ED50 [32]: 1.99 µM | ED50 (Homo sapiens): 0.00782 µM | ED50 [33]: 0.492 µM | ED50 [34]: 17.1 µM | ED50 [35]: 0.0603 µM | ED50 [36]: 0.0344 µM | ED50 [37]: 0.265 µM | ED50 [38]: 0.0175 µM | ED50 [39]: 1.34 µM | ED50 [40]: 0.0181 µM | ED50 [41]: 0.06 µM | ED50 [42]: 1560 µM | ED50 [43]: 2.12 µM | ED50 [44]: 0.0077 µM
